Data from paper PMC2806030, “Inhibition of mammalian S6 kinase by resveratrol suppresses autophagy” (Aging (Albany NY), 2009).

Assays:
[1] = target: NLK (Homo sapiens, UniProt Q9UBE8); experiment: in vitro kinase screen (Upstate KinaseProfiler), single dose […]; type: biochemical
[2] = target: T1, Pim-1 (Homo sapiens, UniProt P11309); experiment: as above; type: biochemical
T1 construct: gene PIM1

[3] = target: T2, p70 S6 kinase (S6K1) (Rattus norvegicus, UniProt P67999); experiment: in vitro […] kinase assay with immunoprecipitated HA-S6K1 and GST-S6 substrate; also KinaseProfiler screen at […]; type: biochemical
T2 construct: gene Rps6kb1; HA-tagged S6K1 wt immunoprecipitated from HEK293 cells

[4] = target: FGFR1(h) (Homo sapiens, UniProt P11362); experiment: biochemical; design: Upstate KinaseProfiler in vitro kinase activity assay, per cent of DMSO control; conditions: read-out: Activity (% of Control)
Protocol: (§1) Kinase profile and kinase assay. A Kinase profile against 100 kinases listed for resveratrol at 20 μM was generated utilizing Upstate's KinaseProfiler™ service. Assay protocols for each kinase are available from Upstate (Lake Placid, NY). In vitro kinase assay was performed as described previously. Briefly, HEK293 cells were transfected with HA-S6K1 wt, HA-S6K1 K100R, or vector as indicated. Cells were treated with 1 μg/ml insulin for 10 minutes prior to harvesting in PBS + 0.5% NP-40 + protease and phosphatase inhibitors. 125 μg of lysate per sample was immunoprecipitated using 0.5 μg/sample of anti-HA High-Affinity (Roche, Basel Switzerland). Beads from immunoprecipitations were washed three times in lysis buffer and once in kinase buffer, and kinase assays were performed with recombinant GST-S6 as substrate (1 μg per assay). In the indicated lanes varying doses of resveratrol or DMSO control were added to the reaction prior to addition of the GST-S6 substrate. All samples were subjected to SDS-PAGE, and 32P incorporation was quantified by using a Bio-Rad (Hercules, CA) Phosphor-Imager and subsequent analysis with ImageJ (NIH).  Figure 4. Resveratrol inhibits S6K1 in vitro. (A) Structural similarity between resveratrol and quercetin, a known kinase inhibitor. (B) Kinase inhibition profile for resveratrol at 20 μM obtained using KinaseProfiler™ (Upstate). Dashed line represents 100% activity as compared to control. Black filled-in bar on the graph indicates S6K1. Complete data set is provided in Supplementary Table 1. Error bars represent s.d.m. (C) Phosphorylation of recombinant GST-tagged S6 by immunoprecipitated HA-S6K1 under increasing concentrations of resveratrol (Res). Autoradiograph depicts S6K1 phosphorylation of GST-S6. (D) Average of three separate kinase assay experiments as performed in (C). Densitometry was performed using NIH ImageJ. Error bars represent s.e.m. […] Therefore, we hypothesized that the effect of resveratrol on autophagy could be related to inhibition of one or more upstream kinases. To test this, we performed an in vitro kinase screen and determined an inhibition profile for resveratrol. […] With the exception of S6K1, these kinases play primary roles in the hematopoietic system, and were thus viewed as unlikely to have been responsible for the effect we were studying. […] On the other hand, S6K1 is known to play a requisite role in the regulation of autophagy in Drosophila, making it a promising candidate for the in vivo target of resveratrol that is responsible for inhibition of autophagy.

[5] = target: T3, PDGFRα(h) (Homo sapiens, UniProt P16234); experiment: biochemical; design: Upstate KinaseProfiler in vitro kinase activity assay, per cent of DMSO control; conditions: read-out: Activity (% of Control)
T3 construct: gene PDGFRA
Protocol: as §1

[6] = target: T4, SAPK2a(T106M)(h) (Homo sapiens, UniProt Q16539, T106M); experiment: biochemical; design: Upstate KinaseProfiler in vitro kinase activity assay, per cent of DMSO control; conditions: read-out: Activity (% of Control)
T4 construct: gene MAPK14
Protocol: as §1

[7] = target: T5, Rsk1(h) (Homo sapiens, UniProt Q15418); experiment: biochemical; design: Upstate KinaseProfiler in vitro kinase activity assay, per cent of DMSO control; conditions: read-out: Activity (% of Control)
T5 construct: gene RPS6KA1
Protocol: as §1

[8] = target: T6, GSK3ß(h) (Homo sapiens, UniProt P49841); experiment: biochemical; design: Upstate KinaseProfiler in vitro kinase activity assay, per cent of DMSO control; conditions: read-out: Activity (% of Control)
T6 construct: gene GSK3B
Protocol: as §1

[9] = target: T7, PKBγ(h) (Homo sapiens, UniProt Q9Y243); experiment: biochemical; design: Upstate KinaseProfiler in vitro kinase activity assay, per cent of DMSO control; conditions: read-out: Activity (% of Control)
T7 construct: gene AKT3
Protocol: as §1

[10] = target: T8, PKG1ß(h) (Homo sapiens, UniProt Q13976); experiment: biochemical; design: Upstate KinaseProfiler in vitro kinase activity assay, per cent of DMSO control; conditions: read-out: Activity (% of Control)
T8 construct: gene PRKG1; isoform beta
Protocol: as §1

[11] = target: T9, Snk(h) (Homo sapiens, UniProt Q9NYY3); experiment: biochemical; design: Upstate KinaseProfiler in vitro kinase activity assay, per cent of DMSO control; conditions: read-out: Activity (% of Control)
T9 construct: gene PLK2
Protocol: as §1

[12] = target: T10, Abl(h) (Homo sapiens, UniProt P00519); experiment: biochemical; design: Upstate KinaseProfiler in vitro kinase activity assay, per cent of DMSO control; conditions: read-out: Activity (% of Control)
T10 construct: gene ABL1
Protocol: as §1

[13] = target: T11, Pim-2 (Homo sapiens, UniProt Q9P1W9); experiment: biochemical; design: Upstate KinaseProfiler in vitro kinase activity assay, per cent of DMSO control; conditions: read-out: Activity (% of Control)
T11 construct: gene PIM2
Protocol: as §1

[14] = target: EphB2(h) (Homo sapiens, UniProt P29323); experiment: biochemical; design: Upstate KinaseProfiler in vitro kinase activity assay, per cent of DMSO control; conditions: read-out: Activity (% of Control)
Protocol: as §1

[15] = target: T12, cKit(h) (Homo sapiens, UniProt P10721); experiment: biochemical; design: Upstate KinaseProfiler in vitro kinase activity assay, per cent of DMSO control; conditions: read-out: Activity (% of Control)
T12 construct: gene KIT
Protocol: as §1

[16] = target: T13, MST2(h) (Homo sapiens, UniProt Q13188); experiment: biochemical; design: Upstate KinaseProfiler in vitro kinase activity assay, per cent of DMSO control; conditions: read-out: Activity (% of Control)
T13 construct: gene STK3
Protocol: as §1

[17] = target: NEK2(h) (Homo sapiens, UniProt P51955); experiment: biochemical; design: Upstate KinaseProfiler in vitro kinase activity assay, per cent of DMSO control; conditions: read-out: Activity (% of Control)
Protocol: as §1

[18] = target: CDK3/cyclinE(h) (Homo sapiens, UniProt Q00526); experiment: biochemical; design: Upstate KinaseProfiler in vitro kinase activity assay, per cent of DMSO control; conditions: read-out: Activity (% of Control)
Protocol: as §1

[19] = target: T11, Pim-2; experiment: in vitro kinase screen (Upstate KinaseProfiler), single dose […]; type: biochemical

T11 sequence (Q9P1W9 whole entry): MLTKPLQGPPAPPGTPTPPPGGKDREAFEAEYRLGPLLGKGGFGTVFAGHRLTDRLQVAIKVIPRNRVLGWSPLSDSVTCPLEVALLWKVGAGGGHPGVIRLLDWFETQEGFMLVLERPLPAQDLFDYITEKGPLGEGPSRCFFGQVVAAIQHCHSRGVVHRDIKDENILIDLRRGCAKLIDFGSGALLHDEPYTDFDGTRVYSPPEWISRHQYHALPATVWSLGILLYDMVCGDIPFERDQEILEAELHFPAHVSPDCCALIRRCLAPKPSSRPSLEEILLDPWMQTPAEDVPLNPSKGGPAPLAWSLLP
Chain of FGFR1(h) (P11362 whole entry): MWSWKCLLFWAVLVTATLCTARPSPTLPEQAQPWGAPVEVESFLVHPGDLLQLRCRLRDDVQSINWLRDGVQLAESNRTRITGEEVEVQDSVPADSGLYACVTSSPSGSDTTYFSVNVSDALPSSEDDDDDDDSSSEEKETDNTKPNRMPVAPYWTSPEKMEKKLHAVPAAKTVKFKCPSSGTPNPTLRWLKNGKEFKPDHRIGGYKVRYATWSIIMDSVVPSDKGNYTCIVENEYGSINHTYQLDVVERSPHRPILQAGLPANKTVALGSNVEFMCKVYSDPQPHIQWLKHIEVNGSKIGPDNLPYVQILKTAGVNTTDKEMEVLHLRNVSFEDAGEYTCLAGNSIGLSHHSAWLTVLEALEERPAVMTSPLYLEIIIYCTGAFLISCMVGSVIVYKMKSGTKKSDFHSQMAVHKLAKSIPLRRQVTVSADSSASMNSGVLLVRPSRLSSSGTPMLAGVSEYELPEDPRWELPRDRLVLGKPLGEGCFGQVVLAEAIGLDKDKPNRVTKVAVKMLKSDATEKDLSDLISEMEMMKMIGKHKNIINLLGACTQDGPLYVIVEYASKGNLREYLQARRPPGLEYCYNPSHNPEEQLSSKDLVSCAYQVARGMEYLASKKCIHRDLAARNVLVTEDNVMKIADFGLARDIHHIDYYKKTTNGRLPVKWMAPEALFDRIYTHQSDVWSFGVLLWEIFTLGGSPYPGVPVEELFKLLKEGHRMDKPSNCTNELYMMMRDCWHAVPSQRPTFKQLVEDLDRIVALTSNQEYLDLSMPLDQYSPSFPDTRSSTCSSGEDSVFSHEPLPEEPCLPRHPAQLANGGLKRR
T5 sequence (Q15418 whole entry): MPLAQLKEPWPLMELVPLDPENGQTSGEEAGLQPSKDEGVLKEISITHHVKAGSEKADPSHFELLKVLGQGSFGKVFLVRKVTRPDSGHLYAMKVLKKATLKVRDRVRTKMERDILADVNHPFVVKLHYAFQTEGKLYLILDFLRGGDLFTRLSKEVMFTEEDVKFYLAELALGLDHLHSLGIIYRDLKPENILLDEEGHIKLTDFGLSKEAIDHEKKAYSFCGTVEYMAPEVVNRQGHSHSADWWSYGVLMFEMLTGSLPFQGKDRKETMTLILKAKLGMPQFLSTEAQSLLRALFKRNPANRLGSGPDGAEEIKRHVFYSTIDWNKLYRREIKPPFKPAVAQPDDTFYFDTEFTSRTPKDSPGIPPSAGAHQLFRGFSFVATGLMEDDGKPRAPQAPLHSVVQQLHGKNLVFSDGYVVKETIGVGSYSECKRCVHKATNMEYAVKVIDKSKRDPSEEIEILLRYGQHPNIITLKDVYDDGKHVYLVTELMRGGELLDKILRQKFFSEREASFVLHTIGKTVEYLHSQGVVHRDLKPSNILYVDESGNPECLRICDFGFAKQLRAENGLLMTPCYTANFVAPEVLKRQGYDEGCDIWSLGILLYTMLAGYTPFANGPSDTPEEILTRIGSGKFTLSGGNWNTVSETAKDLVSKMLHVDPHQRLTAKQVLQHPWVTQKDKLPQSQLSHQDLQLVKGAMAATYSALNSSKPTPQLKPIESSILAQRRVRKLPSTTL
T2 sequence (P67999 24-525): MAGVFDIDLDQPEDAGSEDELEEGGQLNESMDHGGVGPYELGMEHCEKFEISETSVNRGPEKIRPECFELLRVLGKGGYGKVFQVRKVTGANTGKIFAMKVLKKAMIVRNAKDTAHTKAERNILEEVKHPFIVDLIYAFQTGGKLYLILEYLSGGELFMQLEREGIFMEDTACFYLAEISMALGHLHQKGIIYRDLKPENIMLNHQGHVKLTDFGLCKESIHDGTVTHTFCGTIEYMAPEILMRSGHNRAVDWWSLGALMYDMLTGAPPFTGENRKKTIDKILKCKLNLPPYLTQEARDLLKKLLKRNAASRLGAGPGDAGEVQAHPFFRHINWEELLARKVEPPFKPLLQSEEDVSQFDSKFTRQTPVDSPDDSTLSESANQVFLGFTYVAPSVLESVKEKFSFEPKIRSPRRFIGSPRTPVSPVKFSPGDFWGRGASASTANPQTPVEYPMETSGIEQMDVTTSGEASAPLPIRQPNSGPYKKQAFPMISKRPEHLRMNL
Chain of NLK (Q9UBE8 whole entry): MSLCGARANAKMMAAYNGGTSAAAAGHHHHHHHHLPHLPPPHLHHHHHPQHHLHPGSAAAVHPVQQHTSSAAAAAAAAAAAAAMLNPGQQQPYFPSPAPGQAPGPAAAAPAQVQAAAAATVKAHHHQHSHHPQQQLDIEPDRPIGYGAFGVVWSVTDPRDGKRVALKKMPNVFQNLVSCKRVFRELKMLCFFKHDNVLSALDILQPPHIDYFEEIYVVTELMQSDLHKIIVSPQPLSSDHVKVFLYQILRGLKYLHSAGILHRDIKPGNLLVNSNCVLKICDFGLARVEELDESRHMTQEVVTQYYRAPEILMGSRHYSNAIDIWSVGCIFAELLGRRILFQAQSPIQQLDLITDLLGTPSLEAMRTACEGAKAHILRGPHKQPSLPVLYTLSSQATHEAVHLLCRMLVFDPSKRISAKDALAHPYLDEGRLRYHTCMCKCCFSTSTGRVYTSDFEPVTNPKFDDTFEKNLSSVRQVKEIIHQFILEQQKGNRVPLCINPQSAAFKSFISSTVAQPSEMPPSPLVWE
Chain of NEK2(h) (P51955 whole entry): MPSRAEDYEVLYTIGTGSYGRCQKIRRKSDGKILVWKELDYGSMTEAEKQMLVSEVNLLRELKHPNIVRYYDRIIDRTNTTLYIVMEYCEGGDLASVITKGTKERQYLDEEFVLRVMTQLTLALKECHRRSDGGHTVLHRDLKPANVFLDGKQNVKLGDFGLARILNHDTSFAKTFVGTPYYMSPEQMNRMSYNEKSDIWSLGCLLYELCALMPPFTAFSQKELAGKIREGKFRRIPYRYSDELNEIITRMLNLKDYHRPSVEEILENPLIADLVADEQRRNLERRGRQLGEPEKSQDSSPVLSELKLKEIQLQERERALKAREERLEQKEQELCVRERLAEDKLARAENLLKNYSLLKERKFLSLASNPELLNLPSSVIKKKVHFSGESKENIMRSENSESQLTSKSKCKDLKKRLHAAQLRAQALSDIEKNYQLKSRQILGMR
T1 sequence (P11309 whole entry): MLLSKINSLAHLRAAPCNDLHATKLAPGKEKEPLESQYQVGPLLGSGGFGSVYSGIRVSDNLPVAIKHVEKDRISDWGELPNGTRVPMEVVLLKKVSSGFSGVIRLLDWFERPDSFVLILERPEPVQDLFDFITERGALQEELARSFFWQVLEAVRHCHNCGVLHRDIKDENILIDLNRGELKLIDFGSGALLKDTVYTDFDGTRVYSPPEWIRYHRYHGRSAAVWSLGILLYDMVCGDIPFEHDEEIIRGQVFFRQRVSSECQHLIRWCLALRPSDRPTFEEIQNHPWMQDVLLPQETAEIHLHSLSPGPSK
T9 sequence (Q9NYY3 whole entry): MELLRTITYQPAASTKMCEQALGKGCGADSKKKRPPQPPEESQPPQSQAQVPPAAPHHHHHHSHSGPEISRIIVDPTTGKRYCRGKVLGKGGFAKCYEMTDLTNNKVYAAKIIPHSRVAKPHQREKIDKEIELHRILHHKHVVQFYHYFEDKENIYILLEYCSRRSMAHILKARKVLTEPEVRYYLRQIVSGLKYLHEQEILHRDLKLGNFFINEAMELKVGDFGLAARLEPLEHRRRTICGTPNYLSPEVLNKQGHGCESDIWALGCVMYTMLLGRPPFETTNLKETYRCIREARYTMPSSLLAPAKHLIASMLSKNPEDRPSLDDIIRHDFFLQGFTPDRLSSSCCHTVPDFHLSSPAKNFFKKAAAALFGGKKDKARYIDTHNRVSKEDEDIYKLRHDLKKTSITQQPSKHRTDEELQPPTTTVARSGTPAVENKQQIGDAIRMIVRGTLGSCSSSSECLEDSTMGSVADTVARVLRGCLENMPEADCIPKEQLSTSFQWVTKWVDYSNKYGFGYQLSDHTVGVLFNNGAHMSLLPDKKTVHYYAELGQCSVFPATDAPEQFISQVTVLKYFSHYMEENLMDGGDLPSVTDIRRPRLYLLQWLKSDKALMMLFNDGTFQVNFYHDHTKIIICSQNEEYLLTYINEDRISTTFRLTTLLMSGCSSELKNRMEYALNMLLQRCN
T6 sequence (P49841 whole entry): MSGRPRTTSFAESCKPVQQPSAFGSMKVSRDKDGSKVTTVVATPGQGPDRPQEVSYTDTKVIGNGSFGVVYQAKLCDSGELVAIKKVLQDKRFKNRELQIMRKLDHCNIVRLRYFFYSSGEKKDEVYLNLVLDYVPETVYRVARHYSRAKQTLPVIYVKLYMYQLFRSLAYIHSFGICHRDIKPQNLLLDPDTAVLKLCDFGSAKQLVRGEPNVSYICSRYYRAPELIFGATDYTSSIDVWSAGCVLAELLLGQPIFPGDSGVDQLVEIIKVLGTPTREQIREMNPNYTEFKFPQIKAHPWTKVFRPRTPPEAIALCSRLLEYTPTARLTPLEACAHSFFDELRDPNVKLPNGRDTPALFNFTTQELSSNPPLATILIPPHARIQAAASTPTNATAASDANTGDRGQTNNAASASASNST

`Oc1ccc(/C=C/c2cc(O)cc(O)c2)cc1` [Res, resveratrol] was tested, and the “in vitro kinase screen (Upstate KinaseProfiler), single dose 20 μM” value (“in vitro kinase screen” for short) [1] was “Jak2, NLK, p70 S6 kinase (S6K1), Pim-1, and Pim-2 emerged as potential targets of resveratrol”, the “in vitro kinase screen” value [2] was “Jak2, NLK, p70 S6 kinase (S6K1), Pim-1, and Pim-2 emerged as potential targets of resveratrol” and the IC50 [3] was ~25 µM. For the same molecule, the remaining activity at 20 µM [4] was 58 ± 2%, the remaining activity at 20 µM [5] was 114 ± 2% and the remaining activity at 20 µM [6] was 102 ± 2%. It also gave a remaining activity at 20 µM [7] of 70 ± 1%, a remaining activity at 20 µM [8] of 92% and a remaining activity at 20 µM [9] of 89 ± 4%. For the same molecule, the remaining activity at 20 µM [10] was 56 ± 4%, the remaining activity at 20 µM [11] was 81 ± 3% and the remaining activity at 20 µM [12] was 105 ± 7%. The remaining activity at 20 µM [13] was 14 ± 2%, the remaining activity at 20 µM [14] was 113 ± 1% and the remaining activity at 20 µM [15] was 68%. The remaining activity at 20 µM [16] was 73 ± 8%, the remaining activity at 20 µM [17] was 102 ± 4% and the remaining activity at 20 µM [18] was 75 ± 4%. The “in vitro kinase screen” value [19] was “Jak2, NLK, p70 S6 kinase (S6K1), Pim-1, and Pim-2 emerged as potential targets of resveratrol”.
